Assay results taken from patent publication US9957273B2, “5-substituted 7- [4-(2-pyridyl)phenylmethylamino] -3-isopropylpyrazolo4,3-D]pyrimidine derivatives, use thereof as medicaments, and pharmaceutical compositions” (USTAV EXPERIMENTALNI BOTANIKY AV CR, V.V.I., priority 2015, dated 2018).

Legend:
[1] = test system: PLC/PRF/5 (liver hepatoma); assay: MTT cytotoxicity assay, solid cancer cell line PLC/PRF/5; assay type: cell-based; details: Homo sapiens, PLC-PRF-5, 72 h, three days
Experimental: (§1) The compounds were assayed using the following cell lines: G361 (malignant melanoma), MCF7 (breast adenocarcinoma), PLC/PRF/5 (liver hepatoma), PANC-1 (pancreatic carcinoma) and HCT116 (colon carcinoma). All cell lines were grown in DMEM medium supplemented with fetal bovine serum and L-glutamine and maintained at 37° C. in a humidified atmosphere with 5% CO2. For cytotoxicity assays, 4000-10000 cells were seeded into each well of a 96 well plate, allowed to stabilize for at least 16 h and then tested compounds were added at various concentrations ranging from 100 to 0.01 μM in triplicates. After three days, MTT solution (5 mg/ml; Sigma, St. Louis, USA) was added to cells and medium was replaced with DMSO after five hours. The absorbance was measured at 620 nm by employing a microplate reader. MTT assays were repeated 3 times for each drug application and untreated cells were used as reference.

HCT116 (colon carcinoma) = assay: MTT cytotoxicity assay, solid cancer cell line HCT116; assay type: cell-based; details: Homo sapiens, HCT-116, 72 h, three days
Experimental: as §1

[2] = test system: THP1 (human monocytic cell line); assay: MTT cytotoxicity assay, leukemic cell line THP1; assay type: cell-based; details: Homo sapiens, THP-1, 72 h, three days
From the text: (§2) Cytotoxicity of the compounds is the major property determining their antileukemic efficacy in vivo. One of the parameters used, as the basis for cytotoxicity assays, is the metabolic activity of viable cells. For example, a microtiter assay, which uses (3-(4,5-dimethylthiazol-2-yl)-2,5-diphenyltetrazolium bromide (MTT), is widely used to quantitate cell proliferation and cytotoxicity. This assay is widely used in drug screening programs and in chemosensitivity testing. Because only metabolically active living cells reduce MTT to correspond purple formazan dye, these assays detect viable cells exclusively. The quantity of reduced MTT corresponds to the number of vital cells in the culture.
as §1, with “following leukemic” for “following”, “K562 (human chronic myelogenous leukaemia), HL60 (human promyelocytic leukaemia), CEM (human lymphoblastoid leukaemia), THP1 (human monocytic cell line), MV4; 11 (acute myelocytic leukemia).” for “G361 (malignant melanoma), MCF7 (breast adenocarcinoma), PLC/PRF/5 (liver hepatoma), PANC-1 (pancreatic carcinoma) and HCT116 (colon carcinoma).”, “RPMI” for “DMEM”, “2000-5000” for “4000-10000”, “of” for “of a”, “8” for “16”

[3] = test system: CEM (human lymphoblastoid leukaemia); assay: MTT cytotoxicity assay, leukemic cell line CEM; assay type: cell-based; details: Homo sapiens, 72 h, three days
From the text: as §2
as §1, with “following leukemic” for “following”, “K562 (human chronic myelogenous leukaemia), HL60 (human promyelocytic leukaemia), CEM (human lymphoblastoid leukaemia), THP1 (human monocytic cell line), MV4; 11 (acute myelocytic leukemia).” for “G361 (malignant melanoma), MCF7 (breast adenocarcinoma), PLC/PRF/5 (liver hepatoma), PANC-1 (pancreatic carcinoma) and HCT116 (colon carcinoma).”, “RPMI” for “DMEM”, “2000-5000” for “4000-10000”, “of” for “of a”, “8” for “16”

[4] = test system: breast carcinoma cell line MCF7; assay: Cell cycle profile by BrdU/propidium iodide flow cytometry; assay type: cell-based; details: asynchronously growing MCF7, 24 h, FIG. 1
Experimental: Sub-confluent cells were treated with test compounds at different concentrations for 24 h. The cultures were pulse-labeled with […] 5-bromo-20-deoxyuridine (BrdU) for 30 min at 37° C. prior to harvesting. The cells were then washed in PBS, fixed with 70% ethanol, and denatured in 2 M HCl. Following neutralization, the cells were stained with anti-BrdU fluorescein-labeled antibodies, washed, stained with propidium iodide and analyzed by flow cytometry using a 488 nm laser

CDK5/p35 = target: T1, CDK5/p35 (Homo sapiens, UniProt Q00535); assay: CDK5/p35 kinase inhibition (33P-ATP, histone H1); assay type: biochemical; details: 0.15 μM ATP
T1 construct: purchased ProQinase GmbH
T1 sequence (Q00535 whole entry): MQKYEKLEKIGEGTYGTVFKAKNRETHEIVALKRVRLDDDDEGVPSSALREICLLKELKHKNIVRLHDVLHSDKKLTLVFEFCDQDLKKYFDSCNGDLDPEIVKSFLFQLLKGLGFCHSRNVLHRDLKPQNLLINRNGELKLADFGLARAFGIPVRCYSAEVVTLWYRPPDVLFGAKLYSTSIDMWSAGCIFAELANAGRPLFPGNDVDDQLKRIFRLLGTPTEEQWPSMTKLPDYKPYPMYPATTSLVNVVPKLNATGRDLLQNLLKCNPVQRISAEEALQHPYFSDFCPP
T1 sequence (Q15078 whole entry partner): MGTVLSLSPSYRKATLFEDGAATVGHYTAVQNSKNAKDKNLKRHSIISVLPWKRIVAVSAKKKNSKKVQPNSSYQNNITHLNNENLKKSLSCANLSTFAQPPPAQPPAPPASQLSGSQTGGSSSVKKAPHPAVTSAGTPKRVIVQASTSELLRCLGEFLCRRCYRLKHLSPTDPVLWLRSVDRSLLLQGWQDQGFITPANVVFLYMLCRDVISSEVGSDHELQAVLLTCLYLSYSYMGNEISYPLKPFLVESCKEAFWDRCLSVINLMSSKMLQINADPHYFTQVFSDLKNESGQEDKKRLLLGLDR
Experimental: CDK2/Cyclin E kinase was produced in Sf9 insect cells via baculoviral infection and purified on a NiNTA column (Qiagen). […] CDK5/p35 was purchased from ProQinase GmbH.
(§3) The reactions were stopped by adding 5 μL of 3% aq H3PO4. Aliquots were spotted onto P-81 phosphocellulose (Whatman), washed 3× with 0.5% aq H3PO4 and finally air-dried.

Mdm-2 = assay: Immunoblotting of apoptotic markers in HCT116 cells: Mdm-2; assay type: cell-based; details: 24 hours, FIG. 4
Experimental: (§4) Effect of novel compounds on apoptosis was confirmed by immunoblotting analysis of selected apoptotic proteins. For immunoblotting, cell were harvested, washed three times with ice-cold PBS and lysed in a buffer (50 mM Tris, pH 7.4, 250 mM NaCl, 5 mM EDTA, 50 mM NaF, 1 mM Na3VO4, 1% Nonidet P40) containing mixture of protease and phosphatase inhibitors (Sigma-Aldrich). 20 μg of total proteins were separated by SDS-polyacrylamide gel electrophoresis (SDS-PAGE) and transferred onto nitrocellulose membranes. Membranes were blocked in 5% milk and 0.1% Tween 20 in PBS and probed overnight with specific antibodies. Specific antibodies were purchased from SigmaAldrich (anti a-tubulin, clone DM1A), Santa Cruz Biotechnology (anti-Mcl-1, clone S-19; anti-PARP, clone F-2; anti-Mdm-2, clone SMP14; anti-Bcl-2), DAKO Cytomation Cell Signaling (anti-PUMA) or were a generous gift from Dr. B. Vojtesek (anti-p53, clone DO-1). All primary antibodies were diluted in PBS containing 5% powdered milk; 0.1% Tween 20. Peroxidase conjugated rabbit anti-mouse immunoglobulin or porcine anti-rabbit immunoglobulin antisera (DAKO) were used as the secondary antibodies and visualised with ECL reagents (GE-Healthcare Life Sciences).

[5] = test system: K562 (human chronic myelogenous leukaemia); assay: MTT cytotoxicity assay, leukemic cell line K562; assay type: cell-based; details: Homo sapiens, K562, 72 h, three days
From the text: as §2
as §1, with “following leukemic” for “following”, “K562 (human chronic myelogenous leukaemia), HL60 (human promyelocytic leukaemia), CEM (human lymphoblastoid leukaemia), THP1 (human monocytic cell line), MV4; 11 (acute myelocytic leukemia).” for “G361 (malignant melanoma), MCF7 (breast adenocarcinoma), PLC/PRF/5 (liver hepatoma), PANC-1 (pancreatic carcinoma) and HCT116 (colon carcinoma).”, “RPMI” for “DMEM”, “2000-5000” for “4000-10000”, “of” for “of a”, “8” for “16”

CDK2/Cyclin E = target: T2, CDK2/Cyclin E (Homo sapiens, UniProt P24941); assay: CDK2/Cyclin E kinase inhibition (33P-ATP, histone H1); assay type: biochemical; details: 15 μM ATP
T2 construct: made in house; host or cells: Sf9 insect cells (baculovirus)
Experimental: CDK2/Cyclin E kinase was produced in Sf9 insect cells via baculoviral infection and purified on a NiNTA column (Qiagen). The kinase reactions were assayed with 1 mg/mL histone H1 in the presence of 15 μM ATP, 0.05 μCi [γ-^33P]ATP and of the test compound in a final volume of 10 μL, all in a reaction buffer (60 mM HEPES-NaOH, pH 7.5, 3 mM MgCl2, 3 mM MnCl2, 3 μM Na-orthovanadate, 1.2 mM DTT, 2.5 μg/50 μl PEG20.000). CDK5/p35 was purchased from ProQinase GmbH. The kinase reactions were assayed with 1 mg/mL histone H1 in the presence of 0.15 μM ATP, 0.05 μCi [γ-^33P]ATP and of the test compound in a final volume of 10 μL, all in a reaction buffer (60 mM HEPES-NaOH, pH 7.5, 3 mM MgCl2, 3 mM MnCl2, 3 μM Na-orthovanadate, 1.2 mM DTT, 2.5 μg/50 μl PEG20.000).
as §3

PARP-1 = assay: Immunoblotting of apoptotic markers in HCT116 cells: PARP-1; assay type: cell-based; details: 24 hours, FIG. 4
Experimental: as §4

IC50 (CDK5/p35): 0.017 µM
IC50 (CDK2/Cyclin E): 0.051 µM
Structure (SMILES): CC(C)c1[nH]nc2c(NCc3ccc(-c4ccccn4)cc3)nc(NCC(O)CN)nc12 (stereo not shown) [Compound 45]
IC50 [1]: 0.2 µM
IC50 (HCT116 (colon carcinoma)): 0.37 µM
IC50 [2]: 0.49 µM
IC50 [3]: 0.54 µM
effect on the cell cycle of MCF7 [4]: potently arrested cells in S, G2 and M phases
expression of Mdm-2 (immunoblot) (Mdm-2): decreased expression
IC50 [5]: 0.7 µM
PARP-1 cleavage (immunoblot) (PARP-1): appearance of the caspase-3-cleaved PARP-1 fragment at 89 kDa
